# Paper PMC2632775 (Nuclear medicine and biology, 2008)
# Like-named read-outs stand apart in the source and are kept apart here.
# Experiments:
# [1] = target: T1, VMAT2 binding sites in the pancreas (Rattus norvegicus, UniProt Q01827); test: Blocking studies of pancreatic uptake in rats; format: in vivo; settings: for Blood uptake, Pretreatment / Pancreas uptake, Pretreatment: n=5, ± SD
# VMAT2 = VMAT2 (Rattus norvegicus, UniProt Q01827); test: In vitro autoradiography using rat brain sections; format: binding; settings: preliminary, data not shown
# Chain of VMAT2 (Q01827 whole entry): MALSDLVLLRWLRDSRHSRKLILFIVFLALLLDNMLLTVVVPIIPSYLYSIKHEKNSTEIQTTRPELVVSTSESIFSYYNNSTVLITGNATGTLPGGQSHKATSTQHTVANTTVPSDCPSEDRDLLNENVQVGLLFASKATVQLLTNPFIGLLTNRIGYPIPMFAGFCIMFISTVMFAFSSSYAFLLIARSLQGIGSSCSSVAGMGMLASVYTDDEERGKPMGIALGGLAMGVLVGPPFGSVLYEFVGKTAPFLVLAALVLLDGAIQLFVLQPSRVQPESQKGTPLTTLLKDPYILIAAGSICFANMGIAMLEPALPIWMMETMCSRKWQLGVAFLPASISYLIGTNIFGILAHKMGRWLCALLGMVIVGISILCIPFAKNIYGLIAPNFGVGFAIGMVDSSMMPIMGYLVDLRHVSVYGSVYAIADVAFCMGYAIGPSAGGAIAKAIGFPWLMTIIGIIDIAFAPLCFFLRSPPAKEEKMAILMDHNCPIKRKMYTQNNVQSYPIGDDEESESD
# [2] = rats, avg ± SD, cited from earlier work
# [3] = target: T1, VMAT2 binding sites in the pancreas; settings: rats, 60 min after tracer injection, ± SD, cited from earlier work
# [4] = rats, iv
# [5] = target: VMAT2 binding sites of beta cells in the pancreas (Rattus norvegicus, UniProt Q01827); settings: rats, PET, post iv injection
# Chain of VMAT2 binding sites of beta cells in the pancreas (Q01827 whole entry): as above
# [6] = 30 min after tracer injection, no pretreatment, n=4, ± SD
# [7] = 30 min after tracer injection, pretreatment of (+)DTBZ 3.3 mg/kg iv 5 min prior
# [8] = 60 min after tracer injection, no pretreatment, n=4, ± SD
# [9] = 60 min after tracer injection, pretreatment of (+)2 3.5 mg/kg iv 5 min prior
# [10] = pretreatment of (+)2 3.5 mg/kg iv 5 min prior
# T1 sequence (Q01827 whole entry): as above
structure (smiles),measurement,setting,value
"COc1cc2c(cc1OCCC[18F])CCN1CC(CC(C)C)C(C3CO3)CC21 (stereo not drawn) [[^18F](−)4] [[^18F](−)-2-Oxiranyl-3-isobutyl-9-(3-fluoropropoxy)-10-methoxy-2,3,4,6,7, 11b-hexahydro-1H-pyrido[2,1-a]isoquinoline]",Displaceability of pancreas uptake,"[1]; 30 min, iv pretreatment of (+)DTBZ 3.3 mg/kg 5 min prior",non-displaceable
same,"Blood uptake, Control",[1]; [6],0.07 ± 0.00 %ID/g
same,"Pancreas uptake, Control",[1]; [6],0.22 ± 0.02 %ID/g
same,"Blood uptake, Pretreatment",[1]; [7],0.12 ± 0.03 %ID/g
same,"Pancreas uptake, Pretreatment",[1]; [7],0.22 ± 0.04 %ID/g
same,Labeling of rat brain sections (in vitro autoradiography),VMAT2,no specific binding in any brain region
"COc1cc2c(cc1OCCC[18F])CCN1CC(CC(C)C)C(O)CC21 (stereo not drawn) [[^18F](+)2, [^18F](−)-2-Hydroyxl-3-isobutyl-9-(3-fluoropropoxy)-10-methoxy-2,3,4,6,7, 11b-hexahydro-1H-pyrido[2,1-a]isoquinoline]","Pancreas uptake, Control",[1]; [8],2.19 %ID/g
same,"Pancreas uptake, Pretreatment",[1]; [9],0.32 %ID/g
same,Blood uptake,[2]; 2 min,0.26 ± 0.03 %ID/g
same,Brain uptake,[2]; 2 min,0.71 ± 0.05 %ID/g
same,Heart uptake,[2]; 2 min,0.71 ± 0.07 %ID/g
same,Kidney uptake,[2]; 2 min,2.10 ± 0.17 %ID/g
same,Liver uptake,[2]; 2 min,3.53 ± 0.56 %ID/g
same,Lung uptake,[2]; 2 min,0.94 ± 0.04 %ID/g
same,Muscle uptake,[2]; 2 min,0.14 ± 0.03 %ID/g
same,Pancreas uptake,[2]; 2 min,2.51 ± 0.22 %ID/g
same,Skin uptake,[2]; 2 min,0.23 ± 0.05 %ID/g
same,Spleen uptake,[2]; 2 min,1.46 ± 0.15 %ID/g
same,Blood uptake,[2]; 30 min,0.23 ± 0.06 %ID/g
same,Brain uptake,[2]; 30 min,0.62 ± 0.08 %ID/g
same,Heart uptake,[2]; 30 min,0.41 ± 0.03 %ID/g
same,Kidney uptake,[2]; 30 min,1.06 ± 0.06 %ID/g
same,Liver uptake,[2]; 30 min,2.82 ± 0.24 %ID/g
same,Lung uptake,[2]; 30 min,0.69 ± 0.03 %ID/g
same,Muscle uptake,[2]; 30 min,0.17 ± 0.02 %ID/g
same,Pancreas uptake,[2]; 30 min,5.50 ± 0.97 %ID/g
same,Skin uptake,[2]; 30 min,0.28 ± 0.01 %ID/g
same,Spleen uptake,[2]; 30 min,1.03 ± 0.18 %ID/g
same,Blood uptake,[2]; 60 min,0.18 ± 0.02 %ID/g
same,Brain uptake,[2]; 60 min,0.42 ± 0.04 %ID/g
same,Heart uptake,[2]; 60 min,0.30 ± 0.10 %ID/g
same,Kidney uptake,[2]; 60 min,0.84 ± 0.09 %ID/g
same,Liver uptake,[2]; 60 min,2.47 ± 0.30 %ID/g
same,Lung uptake,[2]; 60 min,0.54 ± 0.14 %ID/g
same,Muscle uptake,[2]; 60 min,0.13 ± 0.01 %ID/g
same,Pancreas uptake,[2]; 60 min,4.98 ± 0.24 %ID/g
same,Skin uptake,[2]; 60 min,0.23 ± 0.04 %ID/g
same,Spleen uptake,[2]; 60 min,0.83 ± 0.18 %ID/g
same,Blood uptake,[2]; 120 min,0.12 ± 0.03 %ID/g
same,Brain uptake,[2]; 120 min,0.35 ± 0.02 %ID/g
same,Heart uptake,[2]; 120 min,0.22 ± 0.01 %ID/g
same,Kidney uptake,[2]; 120 min,0.55 ± 0.06 %ID/g
same,Liver uptake,[2]; 120 min,1.47 ± 0.13 %ID/g
same,Lung uptake,[2]; 120 min,0.35 ± 0.03 %ID/g
same,Muscle uptake,[2]; 120 min,0.10 ± 0.01 %ID/g
same,Pancreas uptake,[2]; 120 min,2.76 ± 0.61 %ID/g
same,Skin uptake,[2]; 120 min,0.16 ± 0.02 %ID/g
same,Spleen uptake,[2]; 120 min,0.48 ± 0.04 %ID/g
same,"Blood uptake, Control",[3]; no pretreatment,0.20 ± 0.02 %ID/g
same,"Pancreas uptake, Control",[3]; no pretreatment,4.93 ± 0.49 %ID/g
same,"Blood uptake, Pretreatment",[3]; [10],0.26 ± 0.04 %ID/g
same,"Pancreas uptake, Pretreatment",[3]; [10],1.11 ± 0.07 %ID/g
"COc1cc2c(cc1OCCC[18F])CCN1CC(CC(C)C)C(C3CO3)CC21 (stereo not drawn) [[^18F](+)4] [[^18F](+)-2-Oxiranyl-3-isobutyl-9-(3-fluoropropoxy)-10-methoxy-2,3,4,6,7, 11b-hexahydro-1H-pyrido[2,1-a]isoquinoline]","Pancreas uptake, Control",[1]; [8],2.19 ± 0.37 %ID/g
same,"Blood uptake, Pretreatment",[1]; [9],0.06 ± 0.01 %ID/g
same,"Pancreas uptake, Pretreatment",[1]; [9],0.32 ± 0.07 %ID/g
same,Blood uptake,"[4]; 2 min, n=3",0.27 %ID/g
same,Bone uptake,"[4]; 2 min, n=3",0.29 %ID/g
same,Brain uptake,"[4]; 2 min, n=3",0.95 %ID/g
same,Heart uptake,"[4]; 2 min, n=3",0.48 %ID/g
same,Kidney uptake,"[4]; 2 min, n=3",4.60 %ID/g
same,Liver uptake,"[4]; 2 min, n=3",3.28 %ID/g
same,Lung uptake,"[4]; 2 min, n=3",0.79 %ID/g
same,Muscle uptake,"[4]; 2 min, n=3",1.00 %ID/g
same,Pancreas uptake,"[4]; 2 min, n=3",1.64 %ID/g
same,Skin uptake,"[4]; 2 min, n=3",0.21 %ID/g
same,Spleen uptake,"[4]; 2 min, n=3",1.36 %ID/g
same,Blood uptake,"[4]; 30 min, n=3",0.15 %ID/g
same,Brain uptake,"[4]; 30 min, n=3",0.30 %ID/g
same,Heart uptake,"[4]; 30 min, n=3",0.11 %ID/g
same,Kidney uptake,"[4]; 30 min, n=3",3.59 %ID/g
same,Liver uptake,"[4]; 30 min, n=3",1.02 %ID/g
same,Lung uptake,"[4]; 30 min, n=3",0.48 %ID/g
same,Pancreas uptake,"[4]; 30 min, n=3",1.96 %ID/g
same,Skin uptake,"[4]; 30 min, n=3",0.14 %ID/g
same,Spleen uptake,"[4]; 30 min, n=3",0.26 %ID/g
same,Blood uptake,"[4]; 60 min, n=7",0.10 %ID/g
same,Bone uptake,"[4]; 60 min, n=7",0.23 %ID/g
same,Brain uptake,"[4]; 60 min, n=7",0.32 %ID/g
same,Heart uptake,"[4]; 60 min, n=7",0.07 %ID/g
same,Kidney uptake,"[4]; 60 min, n=7",2.21 %ID/g
same,Liver uptake,"[4]; 60 min, n=7",0.67 %ID/g
same,Lung uptake,"[4]; 60 min, n=7",0.14 %ID/g
same,Muscle uptake,"[4]; 60 min, n=7",0.04 %ID/g
same,Pancreas uptake,"[4]; 60 min, n=7",2.68 %ID/g
same,Skin uptake,"[4]; 60 min, n=7",0.09 %ID/g
same,Spleen uptake,"[4]; 60 min, n=7",0.16 %ID/g
same,Blood uptake,"[4]; 120 min, n=7",0.04 %ID/g
same,Bone uptake,"[4]; 120 min, n=7",0.22 %ID/g
same,Brain uptake,"[4]; 120 min, n=7",0.24 %ID/g
same,Heart uptake,"[4]; 120 min, n=7",0.02 %ID/g
same,Kidney uptake,"[4]; 120 min, n=7",1.58 %ID/g
same,Liver uptake,"[4]; 120 min, n=7",0.54 %ID/g
same,Lung uptake,"[4]; 120 min, n=7",0.05 %ID/g
same,Muscle uptake,"[4]; 120 min, n=7",0.02 %ID/g
same,Pancreas uptake,"[4]; 120 min, n=7",1.33 %ID/g
same,Skin uptake,"[4]; 120 min, n=7",0.04 %ID/g
same,Spleen uptake,"[4]; 120 min, n=7",0.08 %ID/g
same,Blood uptake,"[4]; 240 min, n=4",0.02 %ID/g
same,Bone uptake,"[4]; 240 min, n=4",0.27 %ID/g
same,Brain uptake,"[4]; 240 min, n=4",0.28 %ID/g
same,Heart uptake,"[4]; 240 min, n=4",0.01 %ID/g
same,Kidney uptake,"[4]; 240 min, n=4",2.01 %ID/g
same,Liver uptake,"[4]; 240 min, n=4",0.54 %ID/g
same,Lung uptake,"[4]; 240 min, n=4",0.03 %ID/g
same,Muscle uptake,"[4]; 240 min, n=4",0.01 %ID/g
same,Pancreas uptake,"[4]; 240 min, n=4",0.81 %ID/g
same,Skin uptake,"[4]; 240 min, n=4",0.02 %ID/g
same,Spleen uptake,"[4]; 240 min, n=4",0.04 %ID/g
same,Time of peak uptake and retention in the pancreas,[5],around 60 min
same,"Pancreas uptake, Pretreatment",[3]; [10],1.11 %ID/g
